In patent US10308667B2, “Oxadiazolopyridine derivatives for use as ghrelin O-acyl transferase (GOAT) inhibitors” (Boehringer Ingelheim International GmbH, priority 2016, dated 2019):

What follows are compounds tested against human GOAT (Homo sapiens (Human), UniProt Q96T53) (assay: Determination of hGOAT Activity in HEK293 Cells after Incubation with Test Compound). Conditions: HEK293 cells stably transfected with preproghrelin and human GOAT; octanoate-BSA 100 μM; acyl-ghrelin in medium by ELISA after 5 hours.
Chain of human GOAT (Q96T53 whole entry): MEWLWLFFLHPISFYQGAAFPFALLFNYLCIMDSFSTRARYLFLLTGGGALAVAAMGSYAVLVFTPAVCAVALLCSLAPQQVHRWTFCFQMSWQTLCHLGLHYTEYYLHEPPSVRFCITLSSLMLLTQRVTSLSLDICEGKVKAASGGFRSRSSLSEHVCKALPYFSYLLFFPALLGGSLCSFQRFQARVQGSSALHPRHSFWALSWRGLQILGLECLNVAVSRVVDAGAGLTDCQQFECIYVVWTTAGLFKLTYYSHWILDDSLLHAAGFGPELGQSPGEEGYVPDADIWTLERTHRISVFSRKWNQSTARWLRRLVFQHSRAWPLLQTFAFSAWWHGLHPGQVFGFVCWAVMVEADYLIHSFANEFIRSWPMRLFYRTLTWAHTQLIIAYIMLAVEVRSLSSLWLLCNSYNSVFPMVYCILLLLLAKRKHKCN
Type: cell-based
Outline: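 HEK293 cells stably expressing preproghrelin and human GOAT were given serum-free medium with 100 μM octanoate-BSA plus compound (0.3% DMSO) for 5 h. Acyl-ghrelin in the medium was quantified by ELISA (A405, standard curve) as % of vehicle. IC50 was fitted from 8 concentrations.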

SMILES | IC50 [nM]
Cc1nc2nonc2c(N)c1Cc1ccc(OC(F)F)c(Br)n1 [Example 15, 6-(6-Bromo-5-difluoromethoxy-pyridin-2-ylmethyl)-5-methyl-[1,2,5]oxadiazolo[3,4-b]pyridin-7-ylamine] | 0.038
Cc1nc2nonc2c(N)c1Cc1cccc(C#N)n1 [Example 164, 6-(7-Amino-5-methyl-[1,2,5]oxadiazolo[3,4-b]pyridin-6-ylmethyl)-pyridine-2-carbonitrile] | 7.4
Cc1nc2nonc2c(N)c1Cc1ncc(Br)c(C(F)(F)F)n1 [Example 83, 6-[5-bromo-4-(trifluoromethyl)pyrimidin-2-yl]methyl-5-methyl-[1,2,5]oxadiazolo[3,4-b]pyridin-7-amine] | 0.077
Cc1nc2nonc2c(N)c1Cc1nc(C(F)F)c(Cl)c(C(F)F)n1 [Example 167, 6-[5-chloro-4,6-bis(difluoromethyl)pyrimidin-2-yl]methyl-5-methyl-[1,2,5]oxadiazolo[3,4-b]pyridin-7-amine] | 0.82
Cc1nc2nonc2c(N)c1Cc1ncc(C#N)c(C(F)F)n1 [Example 79, 2-(7-amino-5-methyl-[1,2,5]oxadiazolo[3,4-b]pyridin-6-ylmethyl)-4-(difluoromethyl)pyrimidine-5-carbonitrile] | 0.59
Cc1nc2nonc2c(N)c1Cc1ccc(OC(F)(F)F)cn1 [Example 17, 5-Methyl-6-(5-trifluoromethoxy-pyridin-2-ylmethyl)-[1,2,5]oxadiazolo[3,4-b]pyridin-7-ylamine] | 0.22
Cc1nc2nonc2c(N)c1Cc1ccc(-n2cccn2)c(C#N)n1 [Example 157, 6-(7-Amino-5-methyl-[1,2,5]oxadiazolo[3,4-b]pyridin-6-ylmethyl)-3-pyrazol-1-yl-pyridine-2-carbonitrile] | 0.26
Cc1nc2nonc2c(N)c1Cc1ccc(NCCF)c(C#N)n1 [Example 153, 6-(7-Amino-5-methyl-[1,2,5]oxadiazolo[3,4-b]pyridin-6-ylmethyl)-3-(2-fluoro-ethylamino)-pyridine-2-carbonitrile] | 0.56
Cc1nc2nonc2c(N)c1Cc1ccc2c(n1)OCCO2 [Example 18, 6-(2,3-Dihydro-[1,4]dioxino[2,3-b]pyridin-6-ylmethyl)-5-methyl-[1,2,5]oxadiazolo[3,4-b]pyridin-7-ylamine] | 0.32
Cc1nc2nonc2c(N)c1Cc1ccc(Br)c(OCCF)n1 [Example 100, 6-[5-Bromo-6-(2-fluoro-ethoxy)-pyridin-2-ylmethyl]-5-methyl-[1,2,5]oxadiazolo[3,4-b]pyridin-7-ylamine] | 0.034
Cc1nc2nonc2c(N)c1Cc1ccc(C#N)c(N2CCOCC2)n1 [Example 136, 6-(7-Amino-5-methyl-[1,2,5]oxadiazolo[3,4-b]pyridin-6-ylmethyl)-2-morpholin-4-yl-nicotinonitrile] | 0.033
Cc1nc2nonc2c(N)c1Cc1ccc([S+](C)[O-])cn1 (centres unmarked) [Example 87, 6-(5-Methanesulfinyl-pyridin-2-ylmethyl)-5-methyl-[1,2,5]oxadiazolo[3,4-b]pyridin-7-ylamine] | 9
Cc1nc2nonc2c(N)c1Cc1ccc(-c2cncs2)c(N)n1 [Example 67, 6-(6-Amino-5-thiazol-5-yl-pyridin-2-ylmethyl)-5-methyl-[1,2,5]oxadiazolo[3,4-b]pyridin-7-ylamine] | 0.05
Cc1nc2nonc2c(N)c1Cc1ccc(F)cn1 [Example 12, 6-(5-Fluoro-pyridin-2-ylmethyl)-5-methyl-[1,2,5]oxadiazolo[3,4-b]pyridin-7-ylamine] | 6.5
